# From patent US9034574B2, “Agents for reversing epigenetic silencing of genes” (The Johns Hopkins University, priority 2006, dated 2015)
# Like-named read-outs stand apart in the source and are kept apart here.
# Key:
# [1] = target: MeCP2_MBD binding to 5-mCpG containing DNA (Homo sapiens (Human), UniProt P51608); test: DNA-protein binding assay, MeCP2_MBD to methylated oligonucleotide; settings: His-tagged MeCP2_MBD, read-out: MeCP2 Binding Inhibition (IC50 in μM)
# Method: (§1) To determine if the “lead” compounds directly interfere with MBD2 binding to ^5−m CpG containing DNA, each “lead” compound is tested for its ability to inhibit such binding using a DNA-protein binding assay. For this assay, a biotinylated and methylated oligonucleotide substrate is bound to a neutravidin-coated high binding capacity 96-well plate. His-tagged MBD2_MBD or MeCP2_MBD binds to the methylated oligonucleotide. An Anti-His-HRP conjugated antibody is used to detect bound protein. Introducing the “lead” compounds into the reaction mix at various concentrations provides a MBD2_MBD-DNA binding curve from which an IC50 is derived.
# (§2) DNA binding assays using recombinant MBDs. […] After centrifugation in a microfuge, the soluble protein fraction, containing MBD2, was recovered. A similar approach was used for producing cloned recombinant MeCP2. […] After washing four times with binding buffer and drying wells, TMB is added to each well followed by 1 N HCl, and A450 is measured on a microplate reader. The IC50 for each “lead” compound is derived from the DNA-protein binding curve.
# [2] = target: recombinant DNMT1 (Homo sapiens (Human), UniProt P26358); test: DNA methyltransferase activity assay with recombinant DNMT1; assay type: biochemical; settings: for DNMT1 Inhibition (IC50 in μM): recombinant DNMT1
# Chain of recombinant DNMT1 (P26358 whole entry): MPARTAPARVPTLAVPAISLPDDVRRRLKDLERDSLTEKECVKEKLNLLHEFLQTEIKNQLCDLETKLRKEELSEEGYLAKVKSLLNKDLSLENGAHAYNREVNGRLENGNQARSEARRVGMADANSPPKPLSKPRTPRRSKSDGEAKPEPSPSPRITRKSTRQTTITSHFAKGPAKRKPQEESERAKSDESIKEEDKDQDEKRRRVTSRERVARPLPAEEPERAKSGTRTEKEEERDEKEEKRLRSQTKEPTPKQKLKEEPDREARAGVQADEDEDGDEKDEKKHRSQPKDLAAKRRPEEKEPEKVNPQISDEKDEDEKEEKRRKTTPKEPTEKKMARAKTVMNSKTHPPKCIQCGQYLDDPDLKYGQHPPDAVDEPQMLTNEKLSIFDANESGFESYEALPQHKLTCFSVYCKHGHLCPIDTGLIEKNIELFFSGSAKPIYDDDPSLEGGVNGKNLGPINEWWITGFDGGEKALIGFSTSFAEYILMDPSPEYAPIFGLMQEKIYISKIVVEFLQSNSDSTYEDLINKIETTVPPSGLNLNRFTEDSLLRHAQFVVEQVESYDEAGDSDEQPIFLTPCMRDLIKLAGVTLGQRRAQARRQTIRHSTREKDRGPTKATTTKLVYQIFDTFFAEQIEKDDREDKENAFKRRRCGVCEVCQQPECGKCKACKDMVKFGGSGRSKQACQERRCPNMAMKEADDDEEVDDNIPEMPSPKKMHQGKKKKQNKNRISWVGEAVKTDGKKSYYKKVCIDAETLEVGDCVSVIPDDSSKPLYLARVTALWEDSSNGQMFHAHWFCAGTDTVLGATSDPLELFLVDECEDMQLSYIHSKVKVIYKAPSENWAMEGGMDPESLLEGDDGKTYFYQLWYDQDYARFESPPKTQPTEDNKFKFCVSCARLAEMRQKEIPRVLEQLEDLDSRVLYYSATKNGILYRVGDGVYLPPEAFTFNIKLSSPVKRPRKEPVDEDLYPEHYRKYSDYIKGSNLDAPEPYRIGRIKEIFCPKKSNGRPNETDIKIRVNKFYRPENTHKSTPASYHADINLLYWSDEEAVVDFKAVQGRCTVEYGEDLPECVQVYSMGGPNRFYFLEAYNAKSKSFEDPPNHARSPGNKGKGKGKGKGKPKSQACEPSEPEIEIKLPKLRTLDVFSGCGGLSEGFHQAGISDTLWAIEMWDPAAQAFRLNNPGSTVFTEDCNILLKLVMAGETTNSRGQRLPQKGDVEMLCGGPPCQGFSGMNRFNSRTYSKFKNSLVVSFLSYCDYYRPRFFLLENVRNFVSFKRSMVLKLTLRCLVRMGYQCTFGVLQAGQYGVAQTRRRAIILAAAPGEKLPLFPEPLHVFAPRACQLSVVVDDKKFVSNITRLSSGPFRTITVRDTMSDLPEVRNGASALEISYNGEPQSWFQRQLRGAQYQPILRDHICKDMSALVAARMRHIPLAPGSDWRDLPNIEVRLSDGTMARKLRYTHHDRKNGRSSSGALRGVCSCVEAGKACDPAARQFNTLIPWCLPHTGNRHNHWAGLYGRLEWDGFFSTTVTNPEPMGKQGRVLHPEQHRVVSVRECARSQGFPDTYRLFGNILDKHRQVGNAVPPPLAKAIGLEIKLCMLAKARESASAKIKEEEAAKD
# Description: (§3) The outputs of these experiments were Ki's for each of the DNMT enzymes. When considered along with potency and efficacy data from the screening assays, the results of analyses of “lead” compounds for interference with MBD2 binding to ^5−m CpG-containing DNA, for direct binding to ^5−mCpG-containing DNA, and for inhibition of DNMTs allow prioritization of “lead” compounds. Ideally, “lead” compounds that activate expression from GSTP1 alleles with CpG island hypermethylation at sub-μM concentrations, target MBD2 directly, and fail to inhibit DNMTs, are high-priority “lead” compounds.
# DNMT assays using recombinant DNMT1, DNMT3a, and DNMT3b. To produce recombinant DNMT1, full-length DNMT1 cDNA was amplified in two segments by RT-PCR from human brain poly A+ RNA (BD Clontech). Amplification of the upstream segment was performed using the PCR primers (5′-[…]-3′ (SEQ ID NO:4) and 5′-[…]-3′ (SEQ ID NO:5)), and amplification of the downstream segment was performed using the PCR primers (5′-[…]-3′ (SEQ ID NO:6) and 5′-[…]-3′ (SEQ ID NO:7)). The upstream and downstream segments were subcloned into the pCMVscript® vector (Stratagene), and assembled using an internal BstEII site that is common to both segments to create pCMVscript-DNMT1. PCR primers containing EcoRI and KpnI sites (5′-GAATTCCCGGCGCGTACCG-3′ (SEQ ID NO:8) and 5′-[…]-3′ (SEQ ID NO:9)) were used to amplify the DNMT1 coding sequence from pCMVscript-DNMT1. […] This pFB6H-DNMT1 construct was used to transform DH10Bac™ E. coli competent cells (Invitrogen) to generate a recombinant expression bacmid via site-specific transposition. The DNMT1 expression bacmid was transfected into Sf9 insect cells to produce recombinant DNMT1 baculovirus particles, which were subsequently used to infect additional Sf9 cells (1 MOI, 48 hours) for protein production. Recombinant His(6)-(SEQ ID NO:21)-DNMT1 was recovered by Ni2+ affinity chromatography. After lysis in 50 mM Na2HPO4 pH 7.6, 10 mM imidazole, 500 mM NaCl, 1% Igepal CA-630, 10% glycerol, and 1× Complete™ Protease Inhibitor (Roche) by two freeze-thaw cycles, His(6)-(SEQ ID NO:21)-DNMT1 was bound to Ni-NTA agarose (Qiagen) for 1.5 hours at 4° C. The supernatant was removed, and the beads were washed twice with 50 mM Na2HPO4 pH 7.6, 20 mM imidazole, 500 mM NaCl, 10% glycerol, and 1× Complete™ Protease Inhibitor to remove contaminating proteins. The beads were then washed twice with 50 mM Na2HPO4 pH 7.6, 10 mM NaCl, 10% glycerol, and 1× Complete™ Protease Inhibitor to remove excess salt. His(6)-(SEQ ID NO:21)-DNMT1 was eluted from the Ni-NTA agarose by adding 50 mM Na2HPO4 pH 7.6, 250 mM imidazole, 10 mM NaCl, 10% glycerol, and 1× Complete™ Protease Inhibitor. Spin dialysis was used to concentrate the protein and exchange the buffer 50 mM Na2HPO4 pH 7.6, 10 mM NaCl, 1 mM EDTA, 1 mM DTT, 20% glycerol, and 1× Complete™ Protease Inhibitor. Protein concentration was determined using the BCA assay (Pierce). Recombinant DNMT1 was stored at −80° C. until further use.
# DNA methyltransferase activity assays were performed by combining 100 nM His(6)-(SEQ ID NO:21)-DNMT with 5′-biotinylated synthetic hemi-methylated or unmethylated oligonucleotide substrate containing 1 μM CG (Top Strand 5′-[…]-3′ (SEQ ID NO:18), Bottom Strand 5′-[…]-3′ (SEQ ID NO:19)) and 1 μM S-adenosyl-L-[methyl-^3H]Methionine™ (Amersham TRK581 60-85 Ci/mmol). After incubation at 37° C. for 30 minutes, reactions were stopped by adding one volume of 10 mM cold S-adenosyl-L-Methionine™ (Sigma). To purify the oligonucleotides, reactions will be added to a SAm^2® 96 Biotin Capture Plate (Promega). The plate was washed 7 times with PBS+2M NaCl and 3 times with dH20 to remove His(6)-(SEQ ID NO:21)-DNMT1 and S-adenosyl-L-methionine.
# [3] = target: MBD2_MBD binding to 5-mCpG containing DNA (Homo sapiens (Human), UniProt Q9UBB5); test: DNA-protein binding assay, MBD2_MBD to methylated oligonucleotide; settings: His-tagged MBD2_MBD
# Chain of MBD2_MBD binding to 5-mCpG containing DNA (Q9UBB5 145-213): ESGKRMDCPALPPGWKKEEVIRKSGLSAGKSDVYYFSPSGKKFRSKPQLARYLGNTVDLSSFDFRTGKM
# Method: as §1, §2
# [4] = system: breast ca; settings: cited from earlier work
# [5] = system: colon ca; settings: cited from earlier work
# [6] = system: ovarian ca; settings: cited from earlier work
# [7] = system: melanoma; settings: cited from earlier work
# [8] = system: prostate ca; settings: n 14, 225 mg/M^2 over 1 day iv; cited from earlier work
# [9] = system: lung ca; settings: n 15, 200-600 mg/M^2 over 1 day iv; cited from earlier work
# [10] = system: mesothelioma; settings: cited from earlier work
# [11] = target: recombinant DNMT3a (Homo sapiens (Human), UniProt Q9Y6K1); test: DNA methyltransferase activity assay with recombinant DNMT3a; assay type: biochemical; settings: read-out: Ki for inhibition of DNMT3a
# Chain of recombinant DNMT3a (Q9Y6K1 whole entry, looked up): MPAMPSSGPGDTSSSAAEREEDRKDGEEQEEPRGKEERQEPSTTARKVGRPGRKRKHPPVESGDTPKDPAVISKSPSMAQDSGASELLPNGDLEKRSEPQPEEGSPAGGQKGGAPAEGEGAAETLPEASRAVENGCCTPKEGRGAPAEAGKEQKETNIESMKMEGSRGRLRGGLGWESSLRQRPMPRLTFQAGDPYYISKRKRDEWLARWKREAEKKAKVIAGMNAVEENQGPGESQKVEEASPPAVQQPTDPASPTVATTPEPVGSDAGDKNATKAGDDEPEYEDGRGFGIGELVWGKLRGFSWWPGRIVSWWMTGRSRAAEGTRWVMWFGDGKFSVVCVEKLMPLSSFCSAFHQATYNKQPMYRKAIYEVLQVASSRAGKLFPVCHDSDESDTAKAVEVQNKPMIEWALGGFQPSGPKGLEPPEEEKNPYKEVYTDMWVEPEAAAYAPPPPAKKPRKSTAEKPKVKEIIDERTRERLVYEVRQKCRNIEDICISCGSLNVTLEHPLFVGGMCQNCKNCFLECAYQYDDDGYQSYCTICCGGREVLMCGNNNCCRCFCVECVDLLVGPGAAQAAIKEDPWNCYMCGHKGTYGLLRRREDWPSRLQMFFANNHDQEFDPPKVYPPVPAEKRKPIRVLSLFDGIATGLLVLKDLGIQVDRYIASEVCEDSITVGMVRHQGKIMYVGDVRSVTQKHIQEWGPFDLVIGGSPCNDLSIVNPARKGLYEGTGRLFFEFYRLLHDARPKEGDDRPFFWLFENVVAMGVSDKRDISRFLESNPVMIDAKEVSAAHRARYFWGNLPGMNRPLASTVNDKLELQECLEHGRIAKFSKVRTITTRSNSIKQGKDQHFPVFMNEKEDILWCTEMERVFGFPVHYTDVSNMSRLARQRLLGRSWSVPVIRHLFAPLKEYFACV
# Description: as §3
# His(6)-(SEQ ID NO:21)-DNMT3a and His(6)-(SEQ ID NO:21)-DNM3b2 were expressed and purified in Sf9 cells as described above with the following modifications. […]
# DNA methyltransferase activity assays were performed by combining 100 nM His(6)-(SEQ ID NO:21)-DNMT with 5′-biotinylated synthetic hemi-methylated or unmethylated oligonucleotide substrate containing 1 μM CG (Top Strand 5′-[…]-3′ (SEQ ID NO:18), Bottom Strand 5′-[…]-3′ (SEQ ID NO:19)) and 1 μM S-adenosyl-L-[methyl-^3H]Methionine™ (Amersham TRK581 60-85 Ci/mmol). […] After drying the plate, 30 μl Microscint-PS™ scintillation fluid (Packard) was added to each well, and tritium was quantitated using the TopCount™ NXT liquid scintillation counter (Packard). […]
# [12] = n 4, 275-850 mg/M^2 over 10 days sq
# Chain of MeCP2_MBD binding to 5-mCpG containing DNA (P51608 90-162): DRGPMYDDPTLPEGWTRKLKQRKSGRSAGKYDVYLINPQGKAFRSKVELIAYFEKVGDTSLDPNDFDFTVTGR
compound,measurement,setting,value
c1ccc(Nc2nc(-c3ccccn3)cs2)nc1 [(I)],IC50,[1],10.5 µM
Oc1cccc(Nc2nc(-c3ccccn3)cs2)c1 [(II)],DNMT1 Inhibition (IC50 in μM),[2],No Inhibition
same,IC50,[1],> 200 µM
Cn1c2ccccc2n2cc(-c3ccc([N+](=O)[O-])cc3)nc12 [(III)],DNMT1 Inhibition (IC50 in μM),[2],No Inhibition
same,IC50,[1],> 200 µM
COc1ccccc1-c1nc(-c2cccc([N+](=O)[O-])c2)no1 [(X)],DNMT1 Inhibition (IC50 in μM),[2],No Inhibition
same,IC50,[1],> 200 µM
COc1ccc([N+](=O)[O-])cc1C1NN=C(c2ccccc2)S1 (stereo not drawn) [(XIX)],DNMT1 Inhibition (IC50 in μM),[2],No Inhibition
same,MBD2 Binding Inhibition (IC50 in μM),[3],In- conclusive
Oc1ccc(C2NN=C(c3ccccc3)S2)cc1 (stereo not drawn) [(XVII)],DNMT1 Inhibition (IC50 in μM),[2],No Inhibition
same,IC50,[1],16.9 µM
COc1cc(O)cc(Br)c1/C=N/Nc1nc2ccccc2s1 [(XVIII)],DNMT1 Inhibition (IC50 in μM),[2],No Inhibition
same,IC50,[1],> 200 µM
OC1(C(F)(F)F)CC(c2ccccc2)=NN1C(=S)c1ccccc1 (stereo not drawn) [(XX)],DNMT1 Inhibition (IC50 in μM),[2],No Inhibition
same,IC50,[1],> 200 µM
Clc1ccc(C2NN=C(c3ccccc3)S2)cc1 (stereo not drawn) [(XXI)],DNMT1 Inhibition (IC50 in μM),[2],No Inhibition
same,IC50,[1],33.9 µM
Oc1ccc2ccccc2c1C1NN=C(c2ccccc2)S1 (stereo not drawn) [(XXII)],DNMT1 Inhibition (IC50 in μM),[2],No Inhibition
same,IC50,[1],0.61 µM
Nc1cccc(-c2nnc(-c3ccccc3)o2)c1 [(XXIII)],DNMT1 Inhibition (IC50 in μM),[2],No Inhibition
same,IC50,[1],8.59 µM
COc1ccc(NC(=O)Nc2cccc3cccnc23)cc1 [(XXIV)],IC50,[1],2.81 µM
CCOc1ccc(Nc2nc(-c3ccccn3)cs2)cc1 [(XXV)],IC50,[1],> 200 µM
"Nc1ncn([C@@H]2O[C@H](CO)[C@@H](O)[C@H]2O)c(=O)n1 [Compound 5-aza-C, 5-az-cytidine]",% Response,[4]; 1.6 mg/kg over 10 days iv,17%
same,% Response,[4]; [12],25%
same,% Response,"[4]; n 11, 300-700 mg/M^2 over 8 days iv",63%
same,% Response,"[4]; n 31, 600 mg/M^2 over 10 days iv",6%
same,% Response,"[5]; n 4, 275-850 mg/M^2 over 8 days sq",0%
same,% Response,"[5]; n 6, 300-700 mg/M^2 over 10 days iv",33%
same,% Response,"[5]; n 27, dose not given",4%
same,% Response,[6]; [12],25%
same,% Response,"[7]; n 5, 300-700 mg/M^2 over 8 days iv",40%
"Nc1ncn([C@H]2C[C@H](O)[C@@H](CO)O2)c(=O)n1 [Compound 5-aza-dC, 5-aza-deoxycytidine]",% Response,[8],16%
same,% Response,"[5]; n 42, 225 mg/M^2 over 1 day iv",0%
same,% Response,[9],20%
same,% Response,"[6]; n 24, 225 mg/M^2 over 10 days iv",8%
same,% Response,"[7]; n 18, 225 mg/M^2 over 1 day iv",0%
NC1=NCN([C@@H]2O[C@H](CO)[C@@H](O)[C@H]2O)C(=O)N1 [dh-5-aza-C],% Response,"[10]; n 29, 1500 mg/M^2 over 5 days cl",17%
same,% Response,"[10]; n 41, 1500 mg/M^2 over 5 days cl",17%
same,% Response,"[7]; n 40, 5 g/M^2 over 1 day cl",20%
"CCN(CC)CCNC(=O)c1ccc(N)cc1 [procainamide, reference compound]",Ki,"[2]; mixed mechanism, read-out: Ki for inhibition of DNMT1",7.2 µM
same,Ki,[11],1400 µM
